System: breakthrough HE episode in subjects with hepatic encephalopathy (HE)
Experiment: Time to first breakthrough (overt) HE episode, first study, rifaximin vs placebo
Assay type: in vivo, human
Description: An increase in the Conn score of greater than or equal to grade 2 was considered as a breakthrough HE episode.
An efficacy endpoint was the time to first breakthrough overt HE episode. A breakthrough overt HE episode was defined as an increase of Conn score to Grade ≥2 (e.g., 0) or 1 to ≥2) or an increase in Conn and asterixis score of 1 grade each for those subjects who entered the study with a Conn score of 0. Time to breakthrough overt HE episode was the duration from time of first dose of study drug to the first breakthrough overt HE episode. […] Subjects who terminated early for reasons other than breakthrough overt HE were contacted at 6 months from randomization to determine if subjects had experienced a breakthrough overt HE episode or other outcome (e.g., mortality status); and, if the subject had no breakthrough overt HE event prior to contact, he/she was censored at the time of contact. […] Subjects in the study had ≥2 episodes of overt HE equivalent to Conn score ≥2 within 6 months prior to screening (i.e., subjects had documented recurrent, overt HE). At the baseline assessment, subjects were in remission with a Conn score of 0 or 1. A breakthrough overt HE episode, as defined above, was a marked deterioration in neurological function.
Presented herein are the results of the first study and second study. […] The primary efficacy endpoint was the time to breakthrough overt HE. Breakthrough overt HE was defined as an increase of Conn score to Grade ≥2 (e.g., 0 or 1 to ≥2) or an increase in Conn and asterixis score of 1 grade each for those subjects who entered the study with a Conn score of 0. Subjects discontinued from the study at the time of breakthrough overt HE episode. After participation in the first study, subjects had the option to enroll in the open-label, treatment-extension study (the second study).
FIG. 1 illustrates Kaplan-Meier estimates of time to first breakthrough overt HE episode by treatment group in the ITT population. Table 18 presents Kaplan-Meier estimates of the proportions of subjects who experienced breakthrough overt HE over the course of the Treatment Period and results of statistical analyses. […] Subjects who terminated early for reasons other than breakthrough overt HE (eg, liver transplant, AE, subject request) were contacted at 6 months from date of randomization to determine if subjects had experienced a breakthrough overt HE episode or other outcome (e.g., mortality status). Subjects without breakthrough overt HE were censored at the time of contact or death, whichever was earlier.

[1] = breakthrough HE episode by baseline Conn score level, 550 mg BID, N = 93, Days >= 168
[2] = breakthrough HE episode by baseline Conn score level; 550 mg BID; N = 93; Days [0-28)
[3] = breakthrough HE episode by baseline Conn score level; 550 mg BID; N = 93; Days [28-56)
[4] = breakthrough HE episode by baseline Conn score level; 550 mg BID; N = 93; Days [56-84)
[5] = breakthrough HE episode by baseline Conn score level; 550 mg BID; N = 93; Days [84-140)
[6] = breakthrough HE episode by baseline Conn score level; 550 mg BID; N = 93; Days [140-168)
[7] = breakthrough HE episode by baseline MELD score level, 550 mg BID, N = 11, Days >=168
[8] = breakthrough HE episode by baseline MELD score level; 550 mg BID; N = 11; Days [0-28)
[9] = breakthrough HE episode by baseline MELD score level; 550 mg BID; N = 11; Days [28-56)
[10] = breakthrough HE episode by baseline MELD score level; 550 mg BID; N = 11; Days [56-84)
[11] = breakthrough HE episode by baseline MELD score level; 550 mg BID; N = 11; Days [84-140)
[12] = breakthrough HE episode by baseline MELD score level; 550 mg BID; N = 11; Days [140-168)
[13] = breakthrough HE episode by baseline MELD score level, 550 mg BID, N = 34, Days >=168
[14] = breakthrough HE episode by baseline MELD score level; 550 mg BID; N = 34; Days [0-28)
[15] = breakthrough HE episode by baseline MELD score level; 550 mg BID; N = 34; Days [28-56)
[16] = breakthrough HE episode by baseline MELD score level; 550 mg BID; N = 34; Days [56-84)
[17] = breakthrough HE episode by baseline MELD score level; 550 mg BID; N = 34; Days [84-140)
[18] = breakthrough HE episode by baseline MELD score level; 550 mg BID; N = 34; Days [140-168)
[19] = breakthrough HE episode by baseline MELD score level, 550 mg BID, N = 85, Days >=168
[20] = breakthrough HE episode by baseline MELD score level; 550 mg BID; N = 85; Days [0-28)
[21] = breakthrough HE episode by baseline MELD score level; 550 mg BID; N = 85; Days [28-56)
[22] = breakthrough HE episode by baseline MELD score level; 550 mg BID; N = 85; Days [56-84)
[23] = breakthrough HE episode by baseline MELD score level; 550 mg BID; N = 85; Days [84-140)
[24] = breakthrough HE episode by baseline MELD score level; 550 mg BID; N = 85; Days [140-168)
[25] = breakthrough HE episode by prior lactulose use, 550 mg BID, N = 123, Days >=168

SMILES: CO[C@H]1/C=C/O[C@@]2(C)Oc3c(C)c(O)c4c(O)c(c5c(nc6cc(C)ccn65)c4c3C2=O)NC(=O)/C(C)=C\C=C\[C@H](C)[C@H](O)[C@@H](C)[C@@H](O)[C@@H](C)[C@H](OC(C)=O)[C@@H]1C [Rifaximin]
- Cumulative Occurrences of Events [1]: 19
- Occurrences of Events [1]: 0
- Survival [1]: 0.7924
- Occurrences of Events [2]: 11
- Survival [2]: 1.0000
- Occurrences of Events [3]: 3
- Survival [3]: 0.8817
- Occurrences of Events [4]: 1
- Survival [4]: 0.8491
- Occurrences of Events [5]: 3
- Survival [5]: 0.8380
- Occurrences of Events [6]: 1
- Survival [6]: 0.8042
- Cumulative Occurrences of Events [7]: 4
- Occurrences of Events [7]: 0
- Survival [7]: 0.6364
- Cumulative Occurrences of Events [8]: 1
- Occurrences of Events [8]: 1
- Survival [8]: 1.0000
- Cumulative Occurrences of Events [9]: 1
- Occurrences of Events [9]: 0
- Survival [9]: 0.9091
- Cumulative Occurrences of Events [10]: 4
- Occurrences of Events [10]: 3
- Survival [10]: 0.9091
- Cumulative Occurrences of Events [11]: 4
- Occurrences of Events [11]: 0
- Survival [11]: 0.6364
- Cumulative Occurrences of Events [12]: 4
- Occurrences of Events [12]: 0
- Survival [12]: 0.6364
- Cumulative Occurrences of Events [13]: 2
- Occurrences of Events [13]: 0
- Survival [13]: 0.9398
- Cumulative Occurrences of Events [14]: 1
- Occurrences of Events [14]: 1
- Survival [14]: 1.0000
- Cumulative Occurrences of Events [15]: 1
- Occurrences of Events [15]: 0
- Survival [15]: 0.9706
- Cumulative Occurrences of Events [16]: 1
- Occurrences of Events [16]: 0
- Survival [16]: 0.9706
- Cumulative Occurrences of Events [17]: 2
- Occurrences of Events [17]: 1
- Survival [17]: 0.9706
- Cumulative Occurrences of Events [18]: 2
- Occurrences of Events [18]: 0
- Survival [18]: 0.9398
- Cumulative Occurrences of Events [19]: 20
- Occurrences of Events [19]: 0
- Survival [19]: 0.7580
- Cumulative Occurrences of Events [20]: 8
- Occurrences of Events [20]: 8
- Survival [20]: 1.0000
- Cumulative Occurrences of Events [21]: 10
- Occurrences of Events [21]: 2
- Survival [21]: 0.9059
- Cumulative Occurrences of Events [22]: 13
- Occurrences of Events [22]: 3
- Survival [22]: 0.8822
- Cumulative Occurrences of Events [23]: 19
- Occurrences of Events [23]: 6
- Survival [23]: 0.8459
- Cumulative Occurrences of Events [24]: 20
- Occurrences of Events [24]: 1
- Survival [24]: 0.7713
- Cumulative Occurrences of Events [25]: 29
- Occurrences of Events [25]: 0
- Survival [25]: 0.7586
- Cumulative Occurrences of Events (breakthrough HE episode by prior lactulose use; 550 mg BID; N = 123; Days [0-28)): 12
